Assay results as given in patent US11332483B2, “Naphthoquinone containing gold carbene complexes and methods of uses thereof” (BOARD OF REGENTS, THE UNIVERSITY OF TEXAS SYSTEM, priority 2017, dated 2022).
Read-outs that look alike come from different tables or passages of the source.

Tests used:
[1] = test system: A549 cancer cells; conditions: A549, 1.25 μM
Method: All cells were selectively stained for visualization of ROS accentuation (green, CM-H2DCFDA), mitochondria (red, Mitotracker Red), and nuclei (blue, Hoechst).
Cells were then incubated with 1.25 μM complex at 37° C. 4 h. Post incubation, the media was removed and cells were washed (2×) with PBS. Cells were then incubated with 1 μM CM-H2DCFDA (Lifetech C6827) in PBS at 37° C. for 15 min. The dye-PBS solution was removed and cells were washed with PBS (2×). To the cells was added a PBS solution containing 1 ug/mL Hoechst 33342 (Lifetech H1399) and 50 nM Mitotracker Red FM (Lifetech M22425) for 30 min at 37° C. After incubation, the dye-PBS solution was removed and cells were washed with PBS (2×). Cells were then imaged fluorescently on a Leica SP5 X White light laser confocal microscope. Images were taken with a 63×, NA 1.4 objective.

[2] = test system: A549 cells; experiment: Detection of intracellular ROS by flow cytometry (CM-H2DCFDA); format: cell-based, human; conditions: A549, 2.5 μM, 6 h incubation
Method: To establish whether or not the complexes of this disclosure would increase intracellular ROS levels, A549 cells were treated with each complex in a dose responsive manner.
Tumor cells (1×10^6) were plated in a 6-well plate overnight and then incubated with media containing various complexes described at concentrations of 0.625-2.5 μM. Control cells were treated with vehicle only. After a 6 h. incubation, the cells were washed with PBS, detached with 0.250 mL 1× trypsin, collected in a 15 mL conical tube, and pelleted by centrifugation (3 min @ 300 g) at 5° C. The resulting pellet was again washed 2× with cold PBS and pelleted at 5° C. […] The cells were then pelleted, washed with 2 mL PBS, and re-suspended in PBS containing 2 μg/mL propidium iodide (PI, Chemodex P0023) for a final cell concentration of 0.5×10^6 cells/mL. Control samples of unstained cells, cells stained with only CM-H2DCFDA, and cells stained with only PI were also prepared. Each sample was added to one well of a 96-well plate. Samples were then subjected to FACS analysis using a Millipore Guava easyCyte 8 and analyzed using the Guava inCyte software.

[3] = test system: fetal bovine serum proteins
Method: To assess potential drug protein interactions, samples of fetal bovine serum (FBS) were treated with 25 μM 1, 3, and auranofin prior to incubating at 37° C. Aliquots were taken and the free Au (non-protein bound, methanolic extracts) content was analyzed by ICP-MS (FIG. 3B).
A 25 μM solution of each compound in 3 mL warm FBS was made. The solutions were kept at 37° C. Over time, 100 μL aliquots of each solution were taken and precipitated into 400 μL cold methanol. Precipitated aliquots were stored at −80° C. The methanolic suspensions were then centrifuged at 11,000 rcf for 5 min in an Edvotek microcentrifuge. The supernatants were pipetted into new microcentrifuge tubes. Samples were prepared for ICP-MS by adding 200 μL supernatant from each sample to 2 mL 3% Trace Metal Grade HCl. Time points were at addition of compound (T0), 4, 6.25, 9.75, 12, 24, 48, 72, and 100 h.

[4] = test system: A549 cells; conditions: A549, 24 h
Method: Control cells were treated with vehicle only. At 24 h, the media was collected and the cells were washed with PBS. The PBS washing was collected and the attached cells were then subjected to 0.5× trypsin (diluted with PBS) for 2 min. All media and washings were collected, pelleted by centrifugation (3 min @ 300 g) and washed twice with cold PBS. […] After this, 100 μL of cell suspension was added to 1.5 mL centrifuge tubes, followed by 5 μL each of Annexin V-FITC and propidium iodide (PI, 50 μg/mL) solution. Control samples of unstained cells, cells stained with only Annexin V-FITC, and cells stained with only PI were also prepared. Samples were allowed to incubate in the dark for 15 min at ambient temperature. After incubation, each sample was diluted with 200 μL of Annexin V binding buffer, and the resulting 300 μL sample was added to one well of a 96-well plate. Samples were then subjected to FACS analysis using a Millipore Guava easyCyte 8 and analyzed using Guava inCyte software.

[5] = test system: thioredoxin reductase (TrxR) in A549 cells; experiment: Lipoate reduction assay of thioredoxin reductase activity in live cells; format: cell-based, human
Method: To assess whether any or all of the present gold complexes could serve as TrxR inhibitors, standard tests involving the reduction of the oxidized form of the cell-permeable cofactor lipoate to its corresponding reduced form, dihydrolipoate, were carried out. […] [Cl] and 5 (cocktail), auranofin, and doxorubicin for 6 h. Post treatment, the live cells were monitored colorimetrically over 180 min for their ability to reduce lipoate (FIG. 5A).
Cells were harvested and seeded at a density of 10,000 cells/well A549 in 96-well culture plates. They were then incubated overnight at 37° C. and 5% CO2. The next day, appropriate serial dilutions of drug stock in culture media were performed, and 100 μL of the appropriate solution were added to each well. Cells were returned to the incubator for 6 h. Afterwards, the liquid was then removed from each well by vacuum aspiration and replaced by 100 μL of 5 mM lipoate (Tokyo Chemical Industry Co., Ltd. L0207) and 1 mM DTNB (Acros Organics 117540050) in HBSS (Life tech 14025-092). The absorbance of each well at […] was recorded immediately and once every 20 min for three h on a microplate reader (Molecular Devices, Sunnyvale, Calif.). Plates were covered with aluminum foil between readings.

[6] = test system: A549 lung cancer cells; experiment: Cell proliferation (MTT) assay in A549 lung cancer cells; format: cell-based, human
Method: Cells were harvested and seeded into 96-well culture plates (Costar 07-200-90) in 100 μL of culture media. They were allowed to incubate overnight at 37° C. in the presence of 5% CO2. A549 was seeded at a density of 1000 cells/well, A2780 at 2500 cells/well, A2780CP at 3000 cells/well, and PC-3 at 2000 cells/well. The next day, appropriate serial dilutions of drug stocks in culture media were made. To each well of a 96 well plate was added 100 μL of the appropriate solution. After a total of three days, a […] aliquot of 3 mg/mL tetrazolium dye, 344,5-dimethylthiazol-2-yl)-2,5-diphenyltetrazolium bromide (Alfa Aesar L11939) was added to each well, followed by a 4 hr incubation period at 37° C. The medium was then removed, the resulting formazan was dissolved in […] DMSO and the respective absorbances were measured at 560-650 nm using a microplate reader (Molecular Devices, Sunnyvale, Calif.). Absorbance values were corrected for background and then normalized to wells containing untreated cells to allow for plate-to-plate comparisons. The data are shown as mean inhibition of proliferation or growth as a percentage of control cells and are from 2-3 replicate experiments. Resulting dose response curves were subjected to linear regression analysis (Origin by OriginLab, Inc.) for determination of IC50 values.

[7] = test system: zebrafish embryos/larvae
Method: First, zebrafish embryos were divided into 7 groups at an average of 65 embryos per group. […] Briefly, live human lung cancer cells (A549) were labeled with CM-DiI (red) and only live cells were transplanted via injection into the perivitelline space of 30 zebrafish embryos 24 hours post fertilization (hpf) (Sittaramane et al., 2015; Veinotte et al., 2014; Xie et al., 2015). Tumor inoculated zebrafish embryos were allowed to grow for one day till 48 hpf. This allows for establishment of the cancer cells in the host zebrafish embryos.
The embryonic development of zebrafish embryos was monitored at 48 hpf and 72 hpf to record the number of dead embryos.

Cc1cc(C)c(-n2c3c([n+](-c4c(C)cc(C)cc4C)[c]2[Au-][c]2n(-c4c(C)cc(C)cc4C)c4c([n+]2-c2c(C)cc(C)cc2C)C(=O)c2ccccc2C4=O)C(=O)c2ccccc2C3=O)c(C)c1.[Cl][Ag-][Cl] [Compound 1, [Bis(1,3-dimesityl-4,5-naphthoquino-imidazol-2-ylidene)-gold(I)] [Silver(I)dichloride]]
subcellular loci of ROS accentuation [1]: ROS accentuation is arising from mitochondria | fluorescence associated cell population shift (intracellular ROS increase) [2]: 27 fold | free Au (non-protein bound) content as a function of time [3]: minimal changes in the free Au levels | induction of apoptosis (annexin-V/PI) [4]: induces controlled cell death via an apoptotic mechanism | TrxR activity by lipoate reduction, time and dose dependence ([5]; A549, in words): time (FIG. 12A) and dose (FIG. 12B) dependent inhibition of enzyme activity | inhibition of TrxR (lipoate reduction) ([5]; A549, low concentrations (0.1-0.6 μM), 6 h): inhibition of TrxR was apparent | Fold Difference relative to 1 ([6]; A549 IC50 relative to complex 1): 1 | IC50 ([6]; A549 lung cancer cells, MTT, 72 h, read-out: IC50): 73 ± 16 nM | IC50 ([6]; Table 3, error is standard error of the mean, read-out: IC50 A549 Lung): 73 ± 16 nM | toxic effect relative to vehicle ([7]; 0.5 μM): no observable toxic effect | lethality ([7]; concentrations above 1 μM): 100% | LD50 ([7]; zebrafish embryos/larvae): 0.75 µM
